Experiments:
Test in all cases: cells
[1] = system: U2OS; assay type: functional, cell-based, U-2-OS; conditions: Homo sapiens;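 further: growth inhibition of human U-2-OS cells, determined with a cell viability assay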
Description: SANGER: Inhibition of human U-2-OS cell growth in a cell viability assay.

[2] = system: MEL-HO; assay type: functional, cell-based; conditions: Homo sapiens
Description: SANGER: Inhibition of human MEL-HO cell growth in a cell viability assay.

[3] = system: SW756; assay type: functional, cell-based; conditions: Homo sapiens;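 further: growth inhibition of human SW756 cells, read out with a cell viability assay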
Description: SANGER: Inhibition of human SW756 cell growth in a cell viability assay.

[4] = system: S-117; assay type: functional, cell-based; conditions: Homo sapiens
Description: SANGER: Inhibition of human S-117 cell growth in a cell viability assay.

[5] = system: COR-L23; assay type: functional, cell-based; conditions: Homo sapiens;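 further: cell viability assay measuring how strongly compounds suppress growth of COR-L23 cells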
Description: SANGER: Inhibition of human COR-L23 cell growth in a cell viability assay.

[6] = system: D-392MG; assay type: functional, cell-based; conditions: Homo sapiens
[7] = system: SW626; assay type: functional, cell-based; conditions: Homo sapiens;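 further: growth inhibition of SW626 cells, measured with a cell viability assay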
Description: SANGER: Inhibition of human SW626 cell growth in a cell viability assay.

[8] = system: 786-0; assay type: functional, cell-based; conditions: Homo sapiens
Description: SANGER: Inhibition of human 786-0 cell growth in a cell viability assay.

[9] = system: HPAF-II; assay type: functional, cell-based; conditions: Homo sapiens;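 further: growth inhibition of HPAF-II cells, read out with a cell viability assay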
Description: SANGER: Inhibition of human HPAF-II cell growth in a cell viability assay.

[10] = system: M14; assay type: functional, cell-based; conditions: Homo sapiens;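 further: growth inhibition of M14 cells, read out with a cell viability assay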
Description: SANGER: Inhibition of human M14 cell growth in a cell viability assay.

[11] = system: KP-4; assay type: functional, cell-based; conditions: Homo sapiens;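 further: human KP-4 cells, with growth inhibition read out through a cell viability assay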
Description: SANGER: Inhibition of human KP-4 cell growth in a cell viability assay.

[12] = system: SK-MEL-30; assay type: functional, cell-based; conditions: Homo sapiens;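 further: growth inhibition of SK-MEL-30 cells, determined with a cell viability assay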
Description: SANGER: Inhibition of human SK-MEL-30 cell growth in a cell viability assay.

[13] = system: KU-19-19; assay type: functional, cell-based; conditions: Homo sapiens
Description: SANGER: Inhibition of human KU-19-19 cell growth in a cell viability assay.

[14] = system: Panc1005; assay type: functional, cell-based; conditions: Homo sapiens;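 further: growth inhibition of human PANC-10-05 cells, measured by a cell viability assay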
Description: SANGER: Inhibition of human PANC-10-05 cell growth in a cell viability assay.

[15] = system: EW-24; assay type: functional, cell-based, Homo sapiens; conditions: Homo sapiens, EW-24;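 further: human EW-24 cancer cell line, growth inhibition read out via a cell viability assay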
Description: SANGER: Inhibition of human EW-24 cell growth in a cell viability assay.

[16] = system: HT-29; assay type: functional, cell-based; conditions: Homo sapiens;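 further: growth inhibition of human HT-29 cells, read out by a cell viability assay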
Description: SANGER: Inhibition of human HT-29 cell growth in a cell viability assay.

[17] = system: RO82-W-1; assay type: functional, cell-based; conditions: Homo sapiens;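 further: growth inhibition of human RO82-W-1 cells, measured with a cell viability assay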
Description: SANGER: Inhibition of human RO82-W-1 cell growth in a cell viability assay.

[18] = system: FaDu; assay type: functional, cell-based; conditions: Homo sapiens;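 further: cell viability readout of growth inhibition in FaDu cells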
Description: SANGER: Inhibition of human FADU cell growth in a cell viability assay.

[19] = system: KYSE-180; assay type: functional, cell-based; conditions: Homo sapiens;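 further: growth inhibition of KYSE-180 cells, read out with a cell viability assay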
Description: SANGER: Inhibition of human KYSE-180 cell growth in a cell viability assay.

[20] = system: DBTRG-05MG; assay type: functional, cell-based; conditions: Homo sapiens;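 further: cell viability assay measuring growth inhibition of human DBTRG-05MG cells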
Description: SANGER: Inhibition of human DBTRG-05MG cell growth in a cell viability assay.

[21] = system: UACC-893; assay type: functional, cell-based; conditions: Homo sapiens
Description: SANGER: Inhibition of human UACC-893 cell growth in a cell viability assay.

[22] = system: SK-MEL3; assay type: functional, cell-based, SK-MEL-3; conditions: Homo sapiens;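 further: growth inhibition of human SK-MEL-3 cells, read out with a cell viability assay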
Description: SANGER: Inhibition of human SK-MEL-3 cell growth in a cell viability assay.

[23] = system: C3A; assay type: functional, cell-based; conditions: Homo sapiens;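 further: growth inhibition of C3A human cells, quantified with a cell viability readout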
Description: SANGER: Inhibition of human C3A cell growth in a cell viability assay.

[24] = system: MDA-MB-361; assay type: functional, cell-based; conditions: Homo sapiens
[25] = system: LU-99A; assay type: functional, cell-based; conditions: Homo sapiens;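 further: growth inhibition of LU-99A cells, read out with a cell viability assay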
Description: SANGER: Inhibition of human LU-99A cell growth in a cell viability assay.

[26] = system: 8305C; assay type: functional, cell-based; conditions: Homo sapiens
Description: SANGER: Inhibition of human 8305C cell growth in a cell viability assay.

[27] = system: PC-14; assay type: functional, cell-based; conditions: Homo sapiens;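 further: cell viability assay measuring inhibition of PC-14 cell growth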
Description: SANGER: Inhibition of human PC-14 cell growth in a cell viability assay.

[28] = system: SW780; assay type: functional, cell-based; conditions: Homo sapiens;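 further: growth inhibition of the cells, read out with a cell viability assay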
Description: SANGER: Inhibition of human SW780 cell growth in a cell viability assay.

[29] = system: DOK; assay type: functional, cell-based; conditions: Homo sapiens;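 further: cell viability assay read-out, values reflect inhibition of cell growth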
Description: SANGER: Inhibition of human DOK cell growth in a cell viability assay.

[30] = system: COLO-792; assay type: functional, cell-based; conditions: Homo sapiens
Description: SANGER: Inhibition of human COLO-792 cell growth in a cell viability assay.

[31] = system: MIA PaCa-2; assay type: functional, cell-based; conditions: Homo sapiens;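 further: growth inhibition of MIA PaCa-2 cells, read out with a cell viability assay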
Description: SANGER: Inhibition of human MIA-PaCa-2 cell growth in a cell viability assay.

[32] = system: NCI-H1573; assay type: functional, cell-based; conditions: Homo sapiens;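 further: growth inhibition of NCI-H1573 cells, read out with a cell viability assay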
Description: SANGER: Inhibition of human NCI-H1573 cell growth in a cell viability assay.

[33] = system: SAOS-2; assay type: functional, cell-based; conditions: Homo sapiens;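 further: growth inhibition of human Saos-2 cells determined by a cell viability assay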
Description: SANGER: Inhibition of human Saos-2 cell growth in a cell viability assay.

[34] = system: KYSE-450; assay type: functional, cell-based; conditions: Homo sapiens;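 further: cell growth inhibition measured by a viability assay in human KYSE-450 cells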
Description: SANGER: Inhibition of human KYSE-450 cell growth in a cell viability assay.

[35] = system: C-33-A; assay type: functional, cell-based; conditions: Homo sapiens;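 further: cell viability assay measuring growth inhibition of C-33-A cells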
Description: SANGER: Inhibition of human C-33-A cell growth in a cell viability assay.

[36] = system: EFM-19; assay type: functional, cell-based; conditions: Homo sapiens;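 further: growth inhibition of human EFM-19 cells, measured in a cell viability assay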
Description: SANGER: Inhibition of human EFM-19 cell growth in a cell viability assay.

[37] = system: HCC1569; assay type: functional, cell-based; conditions: Homo sapiens;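 further: growth inhibition of human HCC1569 cells, read out with a cell viability assay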
Description: SANGER: Inhibition of human HCC1569 cell growth in a cell viability assay.

[38] = system: Huh-7; assay type: functional, cell-based; conditions: Homo sapiens;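 further: HuH-7 cell growth inhibition, read out with a cell viability assay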
Description: SANGER: Inhibition of human HuH-7 cell growth in a cell viability assay.

[39] = system: NCI-H1703; assay type: functional, cell-based; conditions: Homo sapiens;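 further: growth inhibition of NCI-H1703 cells, read out via a cell viability assay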
Description: SANGER: Inhibition of human NCI-H1703 cell growth in a cell viability assay.

[40] = system: Ca-Ski; assay type: functional, cell-based; conditions: Homo sapiens;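 further: cell viability assay measuring inhibition of Ca-Ski cell growth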
Description: SANGER: Inhibition of human Ca-Ski cell growth in a cell viability assay.

[41] = system: NCI-H1437; assay type: functional, cell-based; conditions: Homo sapiens;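 further: growth inhibition of human NCI-H1437 cells, read out by a cell viability assay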
Description: SANGER: Inhibition of human NCI-H1437 cell growth in a cell viability assay.

[42] = system: EFO-21; assay type: functional, cell-based; conditions: Homo sapiens;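 further: growth inhibition of EFO-21 cells measured with a viability assay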
Description: SANGER: Inhibition of human EFO-21 cell growth in a cell viability assay.

[43] = system: HEC-1; assay type: functional, cell-based; conditions: Homo sapiens;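 further: growth inhibition of the cell line, read out with a cell viability assay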
Description: SANGER: Inhibition of human HEC-1 cell growth in a cell viability assay.

[44] = system: NCI-H2009; assay type: functional, cell-based; conditions: Homo sapiens;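 further: cell viability assay measuring inhibition of NCI-H2009 cell growth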
Description: SANGER: Inhibition of human NCI-H2009 cell growth in a cell viability assay.

[45] = system: Hs-578T; assay type: functional, cell-based; conditions: Homo sapiens
Description: SANGER: Inhibition of human Hs-578-T cell growth in a cell viability assay.

[46] = system: NCI-H1993; assay type: functional, cell-based; conditions: Homo sapiens;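 further: growth inhibition of the cancer cell line, assessed with a cell viability assay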
Description: SANGER: Inhibition of human NCI-H1993 cell growth in a cell viability assay.

[47] = system: HN; assay type: functional, cell-based; conditions: Homo sapiens
Description: SANGER: Inhibition of human HN cell growth in a cell viability assay.

[48] = system: MKN-28; assay type: functional, cell-based; conditions: Homo sapiens;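 further: cell viability assay read-out, IC50 reflects suppression of growth of human MKN-28 cells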
Description: SANGER: Inhibition of human MKN28 cell growth in a cell viability assay.

[49] = system: HOP-92; assay type: functional, cell-based; conditions: Homo sapiens;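 further: cell viability readout, with IC50 reflecting inhibition of HOP-92 cell growth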
Description: SANGER: Inhibition of human HOP-92 cell growth in a cell viability assay.

[50] = system: LCLC-103H cell line; assay type: functional, cell-based; conditions: Homo sapiens
Description: SANGER: Inhibition of human LCLC-103H cell growth in a cell viability assay.

[51] = system: NCI-H1693; assay type: functional, cell-based; conditions: Homo sapiens;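 further: growth inhibition of the human cell line, read out with a cell viability assay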
Description: SANGER: Inhibition of human NCI-H1693 cell growth in a cell viability assay.

[52] = system: Daoy; assay type: functional, cell-based; conditions: Homo sapiens;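 further: daoy cell growth inhibition, read out as cell viability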
Description: SANGER: Inhibition of human Daoy cell growth in a cell viability assay.

[53] = system: CAL-85-1; assay type: functional, cell-based; conditions: Homo sapiens;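 further: growth inhibition of human CAL-85-1 cells, read out with a cell viability assay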
Description: SANGER: Inhibition of human CAL-85-1 cell growth in a cell viability assay.

[54] = system: T98G; assay type: functional, cell-based; conditions: Homo sapiens;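 further: growth inhibition of T98G cells, read out by a cell viability assay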
Description: SANGER: Inhibition of human T98G cell growth in a cell viability assay.

`NC(=O)Nc1cc(-c2cccc(F)c2)sc1C(=O)N[C@H]1CCCNC1` [AZD-7762] showed an IC50 [1] of 158 nM, an IC50 [2] of 979 nM and an IC50 [3] of 35.8 nM. It also gave an IC50 [4] of 1040 nM, an IC50 [5] of 403 nM and an IC50 [6] of 456 nM. For the same compound, the IC50 [7] was 506 nM, the IC50 [8] was 388 nM and the IC50 [9] was 970 nM. For the same compound, the IC50 [10] was 145 nM, the IC50 [11] was 1460 nM and the IC50 [12] was > 2000 nM. The IC50 [13] was > 2000 nM, the IC50 [14] was > 2000 nM and the IC50 [15] was 289 nM. The IC50 [16] was 894 nM, the IC50 [17] was > 2000 nM and the IC50 [18] was 412 nM. The IC50 [19] was 402 nM, the IC50 [20] was > 2000 nM and the IC50 [21] was > 2000 nM. For the same compound, the IC50 [22] was > 2000 nM, the IC50 [23] was > 2000 nM and the IC50 [24] was 299 nM. The IC50 [25] was > 2000 nM, the IC50 [26] was 789 nM and the IC50 [27] was 417 nM. The IC50 [28] was 1200 nM, the IC50 [29] was > 2000 nM and the IC50 [30] was > 2000 nM. It also gave an IC50 [31] of 375 nM, an IC50 [32] of 1420 nM and an IC50 [33] of 746 nM. It also gave an IC50 [34] of 1050 nM, an IC50 [35] of 862 nM and an IC50 [36] of 1480 nM. For the same compound, the IC50 [37] was > 2000 nM, the IC50 [38] was 1400 nM and the IC50 [39] was 6.43 nM. For the same compound, the IC50 [40] was 388 nM, the IC50 [41] was > 2000 nM and the IC50 [42] was > 2000 nM. For the same compound, the IC50 [43] was 814 nM, the IC50 [44] was > 2000 nM and the IC50 [45] was 453 nM. The IC50 [46] was > 2000 nM, the IC50 [47] was 846 nM and the IC50 [48] was > 2000 nM. The IC50 [49] was 293 nM, the IC50 [50] was 980 nM and the IC50 [51] was 1230 nM. For the same compound, the IC50 [52] was 451 nM, the IC50 [53] was > 2000 nM and the IC50 [54] was 246 nM.
For `CN(NC(=O)CC(=O)NN(C)C(=S)c1ccccc1)C(=S)c1ccccc1` [ELESCLOMOL], the IC50 [1] was 19.7 nM, the IC50 [2] was > 200 nM and the IC50 [3] was 4.13 nM. The IC50 [4] was 27.4 nM, the IC50 [5] was > 200 nM and the IC50 [6] was 78.7 nM. The IC50 [7] was 54 nM, the IC50 [8] was 12.9 nM and the IC50 [9] was 38.3 nM. The IC50 [10] was 122 nM, the IC50 [11] was 2.17 nM and the IC50 [12] was > 200 nM. It also gave an IC50 [13] of 7.09 nM, an IC50 [14] of 110 nM and an IC50 [15] of 3.83 nM. For the same compound, the IC50 [16] was > 200 nM, the IC50 [17] was 26.2 nM and the IC50 [18] was 5.66 nM. The IC50 [19] was 23.8 nM, the IC50 [20] was 9.77 nM and the IC50 [21] was > 200 nM. The IC50 [22] was > 200 nM, the IC50 [23] was > 200 nM and the IC50 [24] was 25.9 nM. The IC50 [25] was > 200 nM, the IC50 [26] was 192 nM and the IC50 [27] was 24.7 nM. For the same compound, the IC50 [28] was 30.3 nM, the IC50 [29] was 17.9 nM and the IC50 [30] was 28.8 nM. For the same compound, the IC50 [31] was 17.1 nM, the IC50 [32] was 189 nM and the IC50 [33] was 11.1 nM. For the same compound, the IC50 [34] was 39 nM, the IC50 [35] was 7.58 nM and the IC50 [36] was 82.5 nM. For the same compound, the IC50 [37] was > 200 nM, the IC50 [38] was 17.6 nM and the IC50 [39] was 3.68 nM. For the same compound, the IC50 [40] was > 200 nM, the IC50 [41] was 87.7 nM and the IC50 [42] was 149 nM. The IC50 [43] was 8.25 nM, the IC50 [44] was > 200 nM and the IC50 [45] was 15.5 nM. The IC50 [46] was > 200 nM, the IC50 [47] was 15.4 nM and the IC50 [48] was 14 nM. The IC50 [49] was 12.7 nM, the IC50 [50] was > 200 nM and the IC50 [51] was 9.09 nM. For the same compound, the IC50 [52] was 16.8 nM, the IC50 [53] was 72.7 nM and the IC50 [54] was 34.3 nM.

Source: ChEMBL document CHEMBL1201861, “Genomics of Drug Sensitity in Cancer screening data, Wellcome Trust Sanger Institute”
